pIC50: −log10 of the molar value. Values joined by “and” are separate entries in the source; they are usually repeats but may differ in a detail not shown here. Equal entries are not always repeated. Where two headings read alike, the source gives them in different places.
Experiments:
[1] = target: T1, wild-type ALS (GST fusion wild-type ALS) (Oryza sativa subsp. japonica, UniProt Q6K2E8); assay: Inhibition of expressed GST fusion wild-type ALS activity by herbicides; format: biochemical, rice
T1 construct: made in house; host or cells: Escherichia coli (pGEX-2T)
T1 sequence (Q6K2E8 44-644): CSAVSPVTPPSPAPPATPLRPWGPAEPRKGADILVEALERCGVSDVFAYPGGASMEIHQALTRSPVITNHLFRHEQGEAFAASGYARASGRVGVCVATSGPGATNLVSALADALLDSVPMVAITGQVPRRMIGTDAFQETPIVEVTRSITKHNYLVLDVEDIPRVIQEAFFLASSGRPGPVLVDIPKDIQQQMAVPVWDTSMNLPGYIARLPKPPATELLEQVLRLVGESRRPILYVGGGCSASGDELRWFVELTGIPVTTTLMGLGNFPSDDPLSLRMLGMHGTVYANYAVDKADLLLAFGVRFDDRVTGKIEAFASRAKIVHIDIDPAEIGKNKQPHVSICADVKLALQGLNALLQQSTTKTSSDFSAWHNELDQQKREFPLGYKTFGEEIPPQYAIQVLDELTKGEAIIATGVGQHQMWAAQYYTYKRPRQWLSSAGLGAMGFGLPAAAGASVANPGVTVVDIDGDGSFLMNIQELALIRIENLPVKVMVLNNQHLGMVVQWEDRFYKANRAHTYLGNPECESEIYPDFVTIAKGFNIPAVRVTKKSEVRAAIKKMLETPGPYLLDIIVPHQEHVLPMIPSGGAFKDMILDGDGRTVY
Procedure: (§1) The Escherichia coli transformed with pGEX-2T having a G95A mutant ALS gene prepared in Example 6 and the same transformed with pGEX-2T (see WO02/44385A1) having a wild-type ALS gene were each shake-cultured (preculture) in 2 ml of LB liquid medium containing ampicillin at 27° C. They were each cultured in 250 ml of LB liquid medium containing ampicillin using 1 ml of the preculture solution. After overnight culture, 1 mM IPTG was added and they were further cultured for 3 to 4 hours. Thus, the expression of the GST fusion protein was induced. In addition, microbial bodies were washed with an ALS extraction buffer (potassium phosphate buffer (pH 7.5) containing 30% glycerol and 0.5 mM MgCl2) and then stored at −80° C.
(§2) Preparation and purification of ALS from Escherichia coli were performed by the following method. First, a pellet of the Escherichia coli stored at −80° C. was suspended in an ALS extraction buffer. (2.5 ml of the ALS extraction buffer was added to the pellet obtained from 50 ml of the culture solution.) The suspension was subjected to ultrasonication (Heat Systems-Ultrasonics, Sonicator W-225R, micro chip, output control 8, intervals of approximately 1 second, and twice every 40 seconds), and then centrifuged at 15000×g and 4° C. for 20 minutes, thereby obtaining the supernatant as a crude enzyme solution. Therefore, a crude enzyme solution of the GST fusion G95A mutant ALS protein and a crude enzyme solution of the GST fusion wild-type ALS protein were prepared.
(§3) A reaction solution to be used for the reaction for activity determination was prepared by mixing GST fusion ALS to be subjected to activity determination with a solution comprising 20 mM sodium pyruvate, 0.5 mM thiamine pyrophosphate, 0.5 mM MgCl2, 10 μM flavin adenine dinucleotide, 10 mM valine (added for the inhibition of activity of ALS derived from Escherichia coli), and 20 mM potassium phosphate buffer (pH 7.5). 0.5 ml of the reaction solution was used. The reaction was performed at 37° C. for 30 minutes after addition of GST fusion ALS to be subjected to activity determination. The reaction was stopped by the addition of 0.05 ml of 6 N sulfuric acid. After the completion of the reaction, the reaction solution was subjected to incubation at 37° C. for 60 minutes, so that acetolactic acid contained in the reaction solution was converted into acetoin. Subsequently, to quantify acetoin contained in the reaction solution, 0.05 ml of 0.5% (w/v) creatine and 0.05 ml of 5% (w/v) α-naphthol dissolved in 2.5 N sodium hydroxide were added, followed by 10 minutes of incubation at 37° C. Acetoin was then quantified by color comparison of the absorbance at 525 nm of the reaction solution, thereby evaluating ALS activity. The value at reaction time 0 (hours) was used as a control value. When the herbicide inhibition activity was examined, aqueous solutions of bispyribac-sodium and pyrithiobac-sodium were each prepared at a 100-fold concentration and then added to the reaction solution. In the case of pyriminobac, chlorsulfuron, bensulfuron-methyl, imazaquin, and imazapyr having low water solubility, an acetone solution was prepared for each thereof at a 100-fold concentrations and then added to the reaction solution.
The 50% inhibitory concentration of each herbicide against G95A mutant ALS was compared with the 50% inhibitory concentration of the herbicide against wild-type ALS (GST fusion wild-type ALS), so that the herbicide resistance ratio (RS ratio) of the 50% inhibitory concentration against G95A mutant ALS to that against wild-type ALS was calculated. The RS ratios in the cases of bispyribac-sodium, pyrithiobac-sodium, and pyriminobac were 16,000:1 or more, 9, 100:1 or more, and 13,000:1 or more, respectively. In contrast, the RS ratios in the cases of chlorsulfuron, bensulfuron-methyl, imazaquin, and imazapyr were 0.19:1, 40:1, 0.82:1, and 4.9:1, respectively. […]

G95A mutant ALS [2] = target: T2, G95A mutant ALS (Oryza sativa subsp. japonica, UniProt Q6K2E8, G95A); assay: Inhibition of expressed GST fusion G95A mutant ALS activity by herbicides; format: biochemical, rice; conditions: for IC50: 50% inhibitory concentration (μM) G95A mutant, G95A mutant ALS (Table 5); for inhibition % at 100 μM / pIC50 / inhibition activity against G95A mutant ALS (in words): G95A mutant ALS; for pIC50: 50% inhibitory concentration
T2 construct: made in house; host or cells: Escherichia coli (pGEX-2T)
T2 sequence (Q6K2E8 44-644 G95A): as the sequence (Q6K2E8 44-644) above, with G52A counted along it
Procedure: as §1, §2, §3
(§4) The inhibition activity of various ALS inhibitors against the thus expressed G95A mutant ALS was examined.

G95A mutant ALS [3] = assay: as above; format: biochemical, rice; conditions: 50% inhibitory concentration against G95A mutant ALS to that against wild-type ALS
Procedure: as §1, §2, §3, §4

[4] = system: plants of wild-type Taichung 65; assay: Bispyribac-sodium resistance test on rooting medium, wild-type control; format: in vivo, rice; conditions: wild-type Taichung 65, 2 weeks after seeding; observed 1 and 2 weeks after transplantation
Procedure: (§5) The two lines of plants selected by the above method were designated the G95A-1 line and the G95A-2 line. Since they were albino plants, they were cultured on MS medium and then multiplied by division. To test the degree of resistance to bispyribac-sodium, clone plants divided from the G95A-1 line were transplanted on rooting media (Table 3) containing 0 μM, 1 μM, 5 μM, 10 μM, or 20 μM bispyribac-sodium (FIG. 3A: on the left in each Petri dish, observed as white because they were albino). Clone plants of the G95A-2 line (the number of these clone plants is a few) were tested using 5 μM bispyribac-sodium alone. Plants of wild-type Taichung 65 in 2 weeks after seeding were used as members of a control group (FIG. 3, on the right side in each Petri dish). Plant in 1 week (FIG. 3B) after transplantation and plant in 2 weeks (FIG. 3C) after transplantation were observed.

[5] = system: clone plants of the G95A-1 line and the G95A-2 line; assay: Bispyribac-sodium resistance test on rooting medium, G95A lines; format: in vivo, rice; conditions: G95A-1 line at 1, 5, 10, 20 μM, G95A-2 line at 5 μM; observed 1 and 2 weeks after transplantation
Procedure: as §5

[6] = read-out: inhibition % at 100 μM, Average, G95A mutant ALS, average of determinations
[7] = read-out: inhibition % at 100 μM, G95A mutant ALS, single determinations (First to Third)
[8] = read-out: inhibition activity at 100 μM, G95A mutant ALS
[9] = Average, average of determinations (Table 4)
[10] = single determinations (First to Sixth)

SMILES: CON=C(C)c1cccc(Oc2nc(OC)cc(OC)n2)c1C(=O)O (mixture of isomers) [Pyriminobac, pyriminobac]
- pIC50 [1]: 8.10
- IC50 (G95A mutant ALS [2]): > 100 µM
- inhibition % at 100 μM (G95A mutant ALS [2]; single determinations (First to Third), listed as PM): 23.3% and 29.2%
- inhibition at 100 µM (G95A mutant ALS [2]; [6]): 25.1%
- inhibition at 100 µM (G95A mutant ALS [2]; [7]): 22.9%
- inhibition at 100 µM (G95A mutant ALS [2]; [8]): ≤ 50%
- Resistance ratio (RS ratio) (G95A mutant ALS [3]): >13000
- Resistance ratio (RS ratio) (G95A mutant ALS [3]; listed as pyriminobac): ≥ 13,000

SMILES: COC(=O)c1ccccc1CS(=O)(=O)NC(=O)Nc1nc(OC)cc(OC)n1 [Bensulfuron-methyl, bensulfuron-methyl]
- pIC50 [1]: 8.15
- IC50 (G95A mutant ALS [2]): 0.28 µM
- pIC50 (G95A mutant ALS [2]; [9]): 6.56
- pIC50 (G95A mutant ALS [2]; [10]): 6.57 and 6.53
- inhibition activity against G95A mutant ALS (in words) (G95A mutant ALS [2]): exerted inhibition activity
- Resistance ratio (RS ratio) (G95A mutant ALS [3]): 40

SMILES: COc1cc(OC)nc(Oc2cccc(Oc3nc(OC)cc(OC)n3)c2C(=O)[O-])n1.[Na+] [Bispyribac-sodium, bispyribac-sodium]
- pIC50 [1]: 8.20
- effect on plants on bispyribac-sodium-containing rooting medium [4]: all the wild-type plants of the control group withered
- IC50 (G95A mutant ALS [2]): > 100 µM
- inhibition % at 100 μM (G95A mutant ALS [2]; single determinations (First to Third), listed as BS): 16.8% and 18.4%
- inhibition at 100 µM (G95A mutant ALS [2]; [6]): 17.7%
- inhibition at 100 µM (G95A mutant ALS [2]; [7]): 17.9%
- inhibition at 100 µM (G95A mutant ALS [2]; [8]): ≤ 50%
- Resistance ratio (RS ratio) (G95A mutant ALS [3]): >16000
- Resistance ratio (RS ratio) (G95A mutant ALS [3]; listed as bispyribac-sodium): ≥ 16,000
- resistance / rooting on bispyribac-sodium-containing rooting medium [5]: exerted resistance, with new rooting observed

SMILES: COc1nc(C)nc(NC(=O)NS(=O)(=O)c2ccccc2Cl)n1 [Chlorsulfuron, chlorsulfuron]
- pIC50 [1]: 7.89
- IC50 (G95A mutant ALS [2]): 0.0025 µM
- pIC50 (G95A mutant ALS [2]; [9]): 8.60
- pIC50 (G95A mutant ALS [2]; [10]): 8.72 and 8.64 and 8.52 and 8.57 and 8.55 and 8.68
- inhibition activity against G95A mutant ALS (in words) (G95A mutant ALS [2]): strong
- Resistance ratio (RS ratio) (G95A mutant ALS [3]): 0.19

SMILES: CC(C)C1(C)N=C(c2ncccc2C(=O)O)NC1=O (stereo not shown) [Imazapyr, imazapyr]
- pIC50 [1]: 5.02
- IC50 (G95A mutant ALS [2]): 47 µM
- pIC50 (G95A mutant ALS [2]; [9]): 4.33
- pIC50 (G95A mutant ALS [2]; [10]): 4.34 and 4.35 and 4.30
- inhibition activity against G95A mutant ALS (in words) (G95A mutant ALS [2]): exerted inhibition activity
- Resistance ratio (RS ratio) (G95A mutant ALS [3]): 4.9

SMILES: CC(C)C1(C)N=C(c2nc3ccccc3cc2C(=O)O)NC1=O (stereo not shown) [Imazaquin, imazaquin]
- pIC50 [1]: 5.66
- IC50 (G95A mutant ALS [2]): 1.8 µM
- pIC50 (G95A mutant ALS [2]; [9]): 5.74
- pIC50 (G95A mutant ALS [2]; [10]): 5.78 and 5.72 and 5.73
- inhibition activity against G95A mutant ALS (in words) (G95A mutant ALS [2]): exerted inhibition activity
- Resistance ratio (RS ratio) (G95A mutant ALS [3]): 0.82

SMILES: COc1cc(OC)nc(Sc2cccc(Cl)c2C(=O)[O-])n1.[Na+] [Pyrithiobac-sodium, pyrithiobac-sodium]
- pIC50 [1]: 7.96
- IC50 (G95A mutant ALS [2]): > 100 µM
- inhibition % at 100 μM (G95A mutant ALS [2]; single determinations (First to Third), listed as PS): 12.8% and 18.1%
- inhibition at 100 µM (G95A mutant ALS [2]; [6]): 14.3%
- inhibition at 100 µM (G95A mutant ALS [2]; [7]): 12.1%
- inhibition at 100 µM (G95A mutant ALS [2]; [8]): ≤ 50%
- Resistance ratio (RS ratio) (G95A mutant ALS [3]): >9100
